Common to all, as to test: Antibacterial activities, MIC
Assay type in all cases: cell-based

One assay deals with Morganella morgani EP-14. Conditions: EP14.
For assay [1], the system named is Staphylococcus aureus 209-P.
Assay [2] concerns Pseudomonas aeruginosa EP-01. Conditions: EP01.
The subject of assay [3] is Klebsiella pneumoniae EK-6. Conditions: EK6.
Assay [4] concerns Serratia marcescens ES-75. Conditions: ES75.
For the next assay, the system named is Escherichia coli NIHJ.

Here are results for three compounds from US5128465A, “Process for the preparation of cephem derivatives and intermediates therefor” (Eisai Co., Ltd., priority 1988, dated 1992).

The structures appear in SMILES notation. ≈ marks a conversion by molar mass, not a printed value.

Take `CC[N+](C)(C/C=C/C1=C(C(=O)[O-])N2C(=O)[C@@H](NC(=O)/C(=N\OCF)c3nsc(N)n3)[C@H]2SC1)CC(N)=O` (stereo partly drawn) [Example 14, 7β-[2-(5-Amino-1,2,4-Thiadiazol-3-yl)-(Z)-2-Fluoromethoxyiminoacetamido]-3-[(E)-3-(Carbamoylmethylethylmethylammonio)-1-Propenyl]-3-Cephem-4-Carboxylate]: the MIC in the assay with Morganella morgani EP-14 is not above 0.025 µg/mL; in assay [1], 0.2 µg/mL (≈ 0.359 µM); in assay [2], 0.8 µg/mL (≈ 1.44 µM); in assay [3], not above 0.025 µg/mL; in assay [4], 0.1 µg/mL (≈ 0.18 µM); in the assay on Escherichia coli NIHJ, not above 0.025 µg/mL.

Take `C[N+](C)(C/C=C/C1=C(C(=O)[O-])N2C(=O)[C@@H](NC(=O)/C(=N\OCF)c3nsc(N)n3)[C@H]2SC1)[C@H](CO)C(N)=O` [Example 10, 7β-[2-(5-Amino-1,2,4-Thiadiazol-3-yl)-(Z)-2-fluoromethoxyiminoacetamido]-3-[(E)-3-[((R)-1-Carbamoyl-2-Hydroxyethyl)Dimethylammonio]-1-propenyl]-3-Cephem-4-Carboxylate]: the MIC was not above 0.025 µg/mL with Morganella morgani EP-14; 0.2 µg/mL (≈ 0.349 µM) in assay [1]; 0.8 µg/mL (≈ 1.4 µM) in assay [2]; not above 0.025 µg/mL in assay [3]; not above 0.025 µg/mL in assay [4]; not above 0.025 µg/mL against Escherichia coli NIHJ.

`C[C@H](C(N)=O)[N+](C)(C)C/C=C/C1=C(C(=O)[O-])N2C(=O)[C@@H](NC(=O)/C(=N\OCF)c3nsc(N)n3)[C@H]2SC1` [Example 18, 7β-[2-(5-Amino-1,2,4-Thiadiazol-3-yl)-(Z)-2-Fluoromethyoxyiminoacetamido]-3-[(E)-3-[((R)-1Carbamoylethyl)dimethylammonio]-1-propenyl]-3-Cephem-4-Carboxylate]: the MIC against Morganella morgani EP-14 was not above 0.025 µg/mL; in assay [1], 0.2 µg/mL (≈ 0.359 µM); in assay [2], 1.56 µg/mL (≈ 2.8 µM); in assay [3], not above 0.025 µg/mL; in assay [4], 0.1 µg/mL (≈ 0.18 µM); against Escherichia coli NIHJ it was not above 0.025 µg/mL.

The MIC is the lowest concentration that inhibits growth of the organism. A lower MIC goes with inhibition by little substance.
